These molecules were tested against T1, AhR (Homo sapiens, UniProt P35869) (assay: AhR direct luciferase reporter assay in HepG2 cells (HepG2 CYP1A1-LUC)). Conditions: luciferase activity after 18 hours, medium with no exogenous AhR agonist or 10 nM VAF347, read-out: AhR potency (AhR antagonistic potency, IC50 class).
T1 construct: The HepG2 CYP1A1-Luc cells do express basal luciferase activity that can be increased via potent AhR agonists or decreased via potent AhR antagonists; endogenous in cells
T1 sequence (P35869 11-848): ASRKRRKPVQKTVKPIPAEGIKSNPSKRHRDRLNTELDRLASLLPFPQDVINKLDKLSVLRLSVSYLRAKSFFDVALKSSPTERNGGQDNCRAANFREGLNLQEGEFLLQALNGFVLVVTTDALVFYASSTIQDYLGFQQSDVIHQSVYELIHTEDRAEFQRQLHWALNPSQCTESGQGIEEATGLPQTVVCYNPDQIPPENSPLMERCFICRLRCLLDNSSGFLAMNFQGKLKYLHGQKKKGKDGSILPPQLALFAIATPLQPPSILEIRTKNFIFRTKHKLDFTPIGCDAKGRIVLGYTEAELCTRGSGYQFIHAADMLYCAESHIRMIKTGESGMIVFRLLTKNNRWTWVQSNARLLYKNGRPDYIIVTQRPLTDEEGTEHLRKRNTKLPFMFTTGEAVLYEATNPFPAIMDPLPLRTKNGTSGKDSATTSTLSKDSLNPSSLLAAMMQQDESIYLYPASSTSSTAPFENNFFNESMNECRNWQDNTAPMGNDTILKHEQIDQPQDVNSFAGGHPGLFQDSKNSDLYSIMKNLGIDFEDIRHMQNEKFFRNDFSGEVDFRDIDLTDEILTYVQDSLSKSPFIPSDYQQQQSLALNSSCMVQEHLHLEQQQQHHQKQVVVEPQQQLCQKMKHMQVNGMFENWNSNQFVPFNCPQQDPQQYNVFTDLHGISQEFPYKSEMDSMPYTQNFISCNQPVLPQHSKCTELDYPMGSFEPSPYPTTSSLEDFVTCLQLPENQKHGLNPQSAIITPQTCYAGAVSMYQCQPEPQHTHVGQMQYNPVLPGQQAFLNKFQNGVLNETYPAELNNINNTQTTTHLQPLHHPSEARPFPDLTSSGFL
Format: cell-based
Description: AhR Direct Luciferase Reporter Assay in HepG2 Cells
A stable cell line (HepG2 CYP1A1-LUC) was used in which part of the promoter region of the human CYP1A1 gene is stably integrated into the genome of human HepG2 hepatocytes (DSZM #ACC 180) in front of a Photinus pyralis Firefly Luciferase gene. A 1210 bp fragment comprising part of the human CYP1A1 promoter was isolated via SacI and BgIII restriction digestion from Lightswitch Clone S714555 (SwitchGearGenomics) and inserted between the SacI and BgIII sites in pGL4.30 (Promega #E8481) in front of the Firefly Luciferase gene. The resulting vector was linearized with NotI, transfected into HepG2 cells (DSMZ #ACC 180) and stably transfected clones selected with 250 μg/ml Hygromycin B. After repetitive rounds of subcloning and testing for robustly regulated luciferase activity after AhR agonist stimulation, a stable clonal HepG2 CYP1A1-Luc cell line was selected.
The HepG2 CYP1A1-Luc cells do express basal luciferase activity that can be increased via potent AhR agonists or decreased via potent AhR antagonists, added to the growth medium of the cells.
In typical reporter assays performed with this cell line, cells are grown in 96-well plates and AhR modulators are titrated into the growth medium in serial dilutions in RPMI-1640 Medium (Sigma #R7509) supplemented with 8,6% fetal calf serum (Sigma #F7524) and containing either no exogenous AhR agonist or 10 nM of the potent AhR agonist VAF347 (Calbiochem #182690). Cells are further cultivated for 18 hours and luciferase activities are determined from extracts of cells in buffers containing D-Luciferine and ATvP using a LUMIstar Optima microplate Luminometer from BMG Labtech.

IC50 [µM] | Structure (SMILES)
< 0.1 | Cn1ncnc1C(=O)Nc1ccc2cc(-c3cc(F)ccc3C(F)F)[nH]c2n1 [Example 4/9, N-(2-(2-(difluoromethyl)-5-fluorophenyl)-1H-pyrrolo[2,3-b]pyridin-6-yl)-1-methyl-1H-1,2,4-triazole-5-carboxamide]
0.1 to 1 | Cn1cncc1C(=O)Nc1ccc2cc(-c3ccccc3C(F)F)[nH]c2n1 [Example 5, N-(2-(2-(Difluoromethyl)phenyl)-1H-pyrrolo[2,3-b]pyridin-6-yl)-1-methyl-1H-imidazole-5-carboxamide]
> 1 | Cn1ncnc1C(=O)Nc1ccc2cc(-c3ccccc3C(=O)O)[nH]c2n1 [Example 6, 2-(6-(1-Methyl-1H-1,2,4-triazole-5-carboxamido)-1H-pyrrolo[2,3-b]pyridin-2-yl)benzoic acid]
0.1 to 1 | Cn1ncnc1C(=O)Nc1ccc2cc(-c3ccccc3C(N)=O)[nH]c2n1 [Example 7, N-(2-(2-Carbamoylphenyl)-1H-pyrrolo[2,3-b]pyridin-6-yl)-1-methyl-1H-1,2,4-triazole-5-carboxamide]
> 1 | CN(C)C(=O)c1ccccc1-c1cc2ccc(NC(=O)c3ncnn3C)nc2[nH]1 [Example 8, N-(2-(2-(Dimethylcarbamoyl)phenyl)-1H-pyrrolo[2,3-b]pyridin-6-yl)-1-methyl-1H-1,2,4-triazole-5-carboxamide]
> 1 | Cn1ncnc1C(=O)Nc1ccc2cc(-c3ccc(C(=O)O)cc3)[nH]c2n1 [Example 12/1, 4-(6-(1-Methyl-1H-1,2,4-triazole-5-carboxamido)-1H-pyrrolo[2,3-b]pyridin-2-yl)benzoic Acid]

Structure (SMILES) | IC50 [µM]
Cn1ncnc1C(=O)Nc1ccc2c(C#N)c(-c3ccccc3C(F)F)[nH]c2n1 [Example 14, N-(3-Cyano-2-(2-(difluoromethyl)phenyl)-1H-pyrrolo[2,3-b]pyridin-6-yl)-1-methyl-1H-1,2,4-triazole-5-carboxamide] | < 0.1

From US10981908B2, “Aryl hydrocarbon receptor (AHR) modulator compounds” (PHENEX PHARMACEUTICALS AG, priority 2017, dated 2021)
